{"source": "patent EP1737880B1", "about": "“17ALPHA-FLUORO-17BETA-HYDROXI[…], A METHOD FOR PRODUCTION THEREOF AND PHARMACEUTICAL COMPOSITIONS COMPRISING SAID COMPOUNDS” (Bayer Schering Pharma Aktiengesellschaft, priority 2004, dated 2005)", "key": {"Progesteronrezeptor": {"target": "T1, Progesteronrezeptor (Oryctolagus cuniculus, UniProt P06186)", "T1 construct": "Uterus-Cytosol, Kaninchen, geprimt; from tissue; host or cells: uterus cytosol of primed rabbits", "T1 sequence (P06186 1-930)": "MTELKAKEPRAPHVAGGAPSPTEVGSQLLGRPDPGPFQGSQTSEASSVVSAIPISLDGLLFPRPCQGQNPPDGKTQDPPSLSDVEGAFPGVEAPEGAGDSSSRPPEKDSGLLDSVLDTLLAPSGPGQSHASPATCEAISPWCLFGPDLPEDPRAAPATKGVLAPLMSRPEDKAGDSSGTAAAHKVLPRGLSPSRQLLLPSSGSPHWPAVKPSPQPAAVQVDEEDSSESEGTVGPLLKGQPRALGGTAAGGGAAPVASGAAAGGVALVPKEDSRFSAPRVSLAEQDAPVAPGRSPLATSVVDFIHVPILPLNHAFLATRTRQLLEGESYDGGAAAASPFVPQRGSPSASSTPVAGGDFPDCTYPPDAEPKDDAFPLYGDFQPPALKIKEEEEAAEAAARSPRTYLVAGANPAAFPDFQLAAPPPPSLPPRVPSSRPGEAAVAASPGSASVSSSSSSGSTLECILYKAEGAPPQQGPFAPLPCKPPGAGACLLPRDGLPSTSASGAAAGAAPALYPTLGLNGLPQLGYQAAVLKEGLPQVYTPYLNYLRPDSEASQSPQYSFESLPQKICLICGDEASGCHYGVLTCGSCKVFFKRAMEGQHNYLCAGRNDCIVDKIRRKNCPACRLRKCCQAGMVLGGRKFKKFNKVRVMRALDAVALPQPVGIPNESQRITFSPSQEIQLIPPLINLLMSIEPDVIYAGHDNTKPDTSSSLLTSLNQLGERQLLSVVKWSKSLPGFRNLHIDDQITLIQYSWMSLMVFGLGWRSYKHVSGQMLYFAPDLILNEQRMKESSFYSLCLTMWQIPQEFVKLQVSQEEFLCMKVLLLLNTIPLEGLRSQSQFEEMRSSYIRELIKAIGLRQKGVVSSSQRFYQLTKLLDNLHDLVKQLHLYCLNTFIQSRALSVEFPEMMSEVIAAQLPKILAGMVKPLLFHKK", "assay": "Binding to the progesterone receptor (relative binding affinity, tracer 3H-ORG 2058)", "conditions": "Uterus-Cytosol, Kaninchen, geprimt, 0-4°C, 18 h, Referenzsubstanz Progesteron = 100%", "excerpt": "Bindung der Verbindung I an den Progesteronrezeptor"}, "5α-Reduktase-Typ2": {"target": "T2, 5α-Reduktase-Typ2 (Homo sapiens, UniProt P31213)", "T2 construct": "In Genitalhaut-Homogenaten unter optimierten Bedingungen bei pH 5.5; from tissue; host or cells: genital skin homogenate", "T2 sequence (P31213 1-254)": "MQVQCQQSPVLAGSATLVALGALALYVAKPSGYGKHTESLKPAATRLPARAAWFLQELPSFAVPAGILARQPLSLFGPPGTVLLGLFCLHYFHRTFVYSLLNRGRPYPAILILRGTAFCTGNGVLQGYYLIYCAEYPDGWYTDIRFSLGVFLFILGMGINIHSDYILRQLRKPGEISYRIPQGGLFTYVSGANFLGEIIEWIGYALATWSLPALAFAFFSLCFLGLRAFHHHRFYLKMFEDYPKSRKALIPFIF", "assay": "5α-reductase type 2 activity in genital skin homogenates", "format": "biochemical", "conditions": "Genitalhaut-Homogenate, optimised conditions, pH 5.5", "excerpt": "Nachfolgend sind beispielhafte Daten zur Progesteronrezeptorbindung, 5α-Reduktase-Typ2-Aktivität in Genitalhaut-Homogenaten und in vivo- Daten am Beispiel von (E)-17α-Fluor-3-oxo-estr-4-en-17β-carbaldehyd oxim aufgeführt"}, "PR-B": {"target": "T3, PR-B (Homo sapiens, UniProt P06401)", "T3 sequence (P06401 1-933)": "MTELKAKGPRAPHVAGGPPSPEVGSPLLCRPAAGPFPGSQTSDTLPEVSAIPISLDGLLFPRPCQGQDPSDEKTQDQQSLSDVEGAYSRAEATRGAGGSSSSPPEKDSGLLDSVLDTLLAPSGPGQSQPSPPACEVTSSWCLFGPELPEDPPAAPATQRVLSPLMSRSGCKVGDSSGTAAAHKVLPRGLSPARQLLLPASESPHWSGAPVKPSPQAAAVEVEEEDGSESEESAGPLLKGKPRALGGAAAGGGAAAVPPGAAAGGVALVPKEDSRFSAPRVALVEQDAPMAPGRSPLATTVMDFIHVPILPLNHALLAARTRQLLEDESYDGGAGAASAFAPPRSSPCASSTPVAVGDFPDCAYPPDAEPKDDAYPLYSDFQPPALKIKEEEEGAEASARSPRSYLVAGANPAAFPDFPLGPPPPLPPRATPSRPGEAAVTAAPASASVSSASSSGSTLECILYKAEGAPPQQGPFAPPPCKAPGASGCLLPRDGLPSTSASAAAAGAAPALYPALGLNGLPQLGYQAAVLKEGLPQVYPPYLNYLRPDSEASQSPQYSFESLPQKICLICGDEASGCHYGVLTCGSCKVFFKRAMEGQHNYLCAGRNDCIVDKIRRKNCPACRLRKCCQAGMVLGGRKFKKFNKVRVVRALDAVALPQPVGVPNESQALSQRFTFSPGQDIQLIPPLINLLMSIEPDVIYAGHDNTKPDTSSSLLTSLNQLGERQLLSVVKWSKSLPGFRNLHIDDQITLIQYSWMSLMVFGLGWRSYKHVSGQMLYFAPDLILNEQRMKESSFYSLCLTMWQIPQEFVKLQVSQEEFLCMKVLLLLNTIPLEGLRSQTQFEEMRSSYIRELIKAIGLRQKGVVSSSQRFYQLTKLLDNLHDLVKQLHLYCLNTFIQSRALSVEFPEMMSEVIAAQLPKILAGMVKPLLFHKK", "assay": "PR-B antagonism and agonism", "format": "cell-based", "excerpt": "PR-B Antagonismus und Agonismus"}, "Maus": {"test_system": "Maus", "assay": "Gestagenic activity in the pregnancy maintenance test, mouse", "format": "in vivo"}}}
{"smiles": "C[C@]12CC[C@H]3[C@@H](CCC4=CC(=O)CC[C@@H]43)[C@@H]1CC[C@]2(F)/C=N/O", "note": "[Verbindung 7, (E)-17α-Fluor-3-oxo-estr-4-en-17β-carbaldehyd oxim]", "values": [{"measurement": "Relative Bindungsaffinität RBA[%]", "setting": "Progesteronrezeptor", "result": "131 ± 9", "unit": "%"}, {"measurement": "IC50", "setting": "5α-Reduktase-Typ2", "result": 245, "unit": "nM"}, {"measurement": "EC50", "setting": "PR-B; agonist mode, read-out: Agonismus IC50", "result": 0.25, "unit": "nM"}, {"measurement": "IC50", "setting": "PR-B; antagonist mode, read-out: Antagonismus IC50", "result": 0.339, "unit": "nM"}, {"measurement": "Rate der erhaltenen Graviditäten", "setting": "Maus; Dosis 0,03 mg/Tier/Tag", "result": "2/2"}, {"measurement": "Rate der erhaltenen Graviditäten", "setting": "Maus; Dosis 0,3 mg/Tier/Tag", "result": "3/3"}, {"measurement": "Rate der erhaltenen Graviditäten", "setting": "Maus; Dosis 0,003 mg/Tier/Tag", "result": "0/3"}]}
